Results taken from patent publication US6638957B1, “Use of compounds with a nitrogen-oxygen heterocycle” (Jomaa Pharmaka GmbH, priority 1999, dated 2003).
Values after ≈ are worked out from the molar mass of the structure shown. Read-outs that look alike come from different tables or passages of the source.

Tests used:
Abutilon theophrasti [1] = assay: herbicidal activity, Erde Nachauflauf; type: in vivo; conditions: 2000 Gramm/Hektar
Protocol: (§1) The determination of herbicidal activity is performed according to standard procedure. Again the compounds listed on page 9 are tested.

Alopecurus myosuroides [2] = assay: herbicidal activity, Erde Nachauflauf; type: in vivo; conditions: 2000 Gramm/Hektar
Protocol: as §1

Galium aperine [3] = assay: herbicidal activity, Erde Nachauflauf; type: in vivo; conditions: 2000 Gramm/Hektar
Protocol: as §1

Sinapis arvensis [4] = assay: herbicidal activity, Erde Nachauflauf; type: in vivo; conditions: Mutarda arvensis; 2000 Gramm/Hektar
Protocol: as §1

Setaria viridis [5] = assay: herbicidal activity, Erde Nachauflauf; type: in vivo; conditions: 2000 Gramm/Hektar
Protocol: as §1

Cyperus esculentus [6] = assay: herbicidal activity, Erde Nachauflauf; type: in vivo; conditions: 2000 Gramm/Hektar
Protocol: as §1

Avena fatua [7] = assay: herbicidal activity, Erde Nachauflauf; type: in vivo; conditions: 2000 Gramm/Hektar
Protocol: as §1

Beta vulgaris [8] = assay: herbicidal activity, Erde Nachauflauf; type: in vivo; conditions: 2000 Gramm/Hektar
Protocol: as §1

Amaranthus retroflexus [9] = assay: herbicidal activity, Erde Nachauflauf; type: in vivo; conditions: 2000 Gramm/Hektar
Protocol: as §1

Zea mays [10] = assay: herbicidal activity, Erde Nachauflauf; type: in vivo; conditions: 2000 Gramm/Hektar
Protocol: as §1

Xanthium strumarium [11] = assay: herbicidal activity, Erde Nachauflauf; type: in vivo; conditions: 2000 Gramm/Hektar
Protocol: as §1

[12] = molecular target: T1, DOXP reductoisomerase of Escherichia coli (UniProt P56139); assay: inhibition of recombinant DOXP reductoisomerase (NADPH oxidation); type: biochemical; conditions: 1 mM DOXP, 0,3 mM NADPH, pH 7,5; read-out: IC50(nM) of DOXP reductoisomerase from Helicobacter pilori
T1 sequence (P56139 1-368): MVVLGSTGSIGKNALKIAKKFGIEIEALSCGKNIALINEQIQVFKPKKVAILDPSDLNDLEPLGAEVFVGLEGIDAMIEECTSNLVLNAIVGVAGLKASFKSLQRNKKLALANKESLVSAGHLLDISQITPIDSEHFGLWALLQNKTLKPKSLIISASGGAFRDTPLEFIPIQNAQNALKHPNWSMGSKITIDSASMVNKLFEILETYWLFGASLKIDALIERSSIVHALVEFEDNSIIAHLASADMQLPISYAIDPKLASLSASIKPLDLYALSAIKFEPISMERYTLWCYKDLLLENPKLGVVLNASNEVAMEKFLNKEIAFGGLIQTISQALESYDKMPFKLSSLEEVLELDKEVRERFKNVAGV

Solanum = assay: herbicidal activity, Hydro Vorauflauf; type: in vivo; conditions: 4000 Gramm/Hektar
Protocol: as §1

Echinochloa = assay: herbicidal activity, Hydro Vorauflauf; type: in vivo; conditions: 4000 Gramm/Hektar
Protocol: as §1

Lepidium = assay: herbicidal activity, Hydro Vorauflauf; type: in vivo; conditions: 4000 Gramm/Hektar
Protocol: as §1

Reis = assay: herbicidal activity, Hydro Vorauflauf; type: in vivo; conditions: 4000 Gramm/Hektar
Protocol: as §1

Pseudomonas aeruginosa = assay: antibacterial activity, minimum inhibition concentration in liquid culture; type: cell-based; conditions: read-out: MIC(nM) of bacteria culture (Pseudomonas aeruginosa)
Protocol: A dilution series comprising the concentrations 500, 100, 50, 10 and 0 μmol 1^−1 of the individual compounds in LB medium is introduced into 5 culture microtubes in a volume of 0,5 ml. The tubes were inoculated with 10 μl of an overnight culture of E. coli K12 and shaken overnight at 37° C. The growth of the bacteria was assessed on the basis of the turbidity of the medium. The minimum concentration causing inhibition of bacterial growth was determined (minimum inhibition concentration MIC)
The antibacterial activity of P. aeruginosa was determined in the same manner.

Plasmodium falciparum = assay: antimalaria activity on in vitro cultures, [3H]-hypoxanthine incorporation; type: cell-based; conditions: 72 h, inhibition of [3H]-hypoxanthine incorporation, 48 + 24 hours, read-out: IC50(nM) of malaria culture (Plasmodium falciparum)
Protocol: The antimalaria activity of the compounds listed on page 9 was determined on in vitro cultures of the malaria pathogen Plasmodium falciparum. The depressions of a 96-well microtitre plate were charged with in each case 200 μl of an asynchroneous Plasmodium falciparum culture at a parasitaemia of 0,4% and haematokrit of 2%. A serial dilution series of the compounds in triple steps between concentrations of 100 to 0,14 μmol 1^−1 was then prepared. The plates were incubated at 37° C., 3% CO2 and 5% O2 over a period of 48 hours. 30 μl medium supplemented with 27 μCi ml^−1 [^3H]-hypoxanthine were then added to each well. After incubation for 24 hours the parasites were harvested by filtration on a glass fibre filter and the radioactivity which had been incorporated was measured. The inhibition of the growth of parasites was measured as the percentage inhibition of the incorporation of tritium. Inhibition of the growth of the parasites has been determined as percentage inhibition of incorporation of tritium based on a comparison without the substance. The half-maximum inhibitory concentration (IC50) of the substance was determined by extrapolation of the values.

Abutilon theophrasti [13] = assay: herbicidal activity, Erde Vorauflauf; type: in vivo; conditions: 2000 Gramm/Hektar
Protocol: as §1

Alopecurus myosuroides [14] = assay: herbicidal activity, Erde Vorauflauf; type: in vivo; conditions: 2000 Gramm/Hektar
Protocol: as §1

Galium aperine [15] = assay: herbicidal activity, Erde Vorauflauf; type: in vivo; conditions: 2000 Gramm/Hektar
Protocol: as §1

Sinapis arvensis [16] = assay: herbicidal activity, Erde Vorauflauf; type: in vivo; conditions: Mutarda arvensis; 2000 Gramm/Hektar
Protocol: as §1

Setaria viridis [17] = assay: herbicidal activity, Erde Vorauflauf; type: in vivo; conditions: 2000 Gramm/Hektar
Protocol: as §1

Cyperus esculentus [18] = assay: herbicidal activity, Erde Vorauflauf; type: in vivo; conditions: 2000 Gramm/Hektar
Protocol: as §1

Avena fatua [19] = assay: herbicidal activity, Erde Vorauflauf; type: in vivo; conditions: 2000 Gramm/Hektar
Protocol: as §1

Beta vulgaris [20] = assay: herbicidal activity, Erde Vorauflauf; type: in vivo; conditions: 2000 Gramm/Hektar
Protocol: as §1

Amaranthus retroflexus [21] = assay: herbicidal activity, Erde Vorauflauf; type: in vivo; conditions: 2000 Gramm/Hektar
Protocol: as §1

Zea mays [22] = assay: herbicidal activity, Erde Vorauflauf; type: in vivo; conditions: 2000 Gramm/Hektar
Protocol: as §1

Xanthium strumarium [23] = assay: herbicidal activity, Erde Vorauflauf; type: in vivo; conditions: 2000 Gramm/Hektar
Protocol: as §1

| Structure (SMILES) | pest or weed control at 2000 g/ha (Abutilon theophrasti [1]) [%] | pest or weed control at 2000 g/ha (Alopecurus myosuroides [2]) [%] | pest or weed control at 2000 g/ha (Galium aperine [3]) [%] | pest or weed control at 2000 g/ha (Sinapis arvensis [4]) [%] | pest or weed control at 2000 g/ha (Setaria viridis [5]) [%] | pest or weed control at 2000 g/ha (Cyperus esculentus [6]) [%] | pest or weed control at 2000 g/ha (Avena fatua [7]) [%] | plant injury at 2000 g/ha (Beta vulgaris [8]) [%] | pest or weed control at 2000 g/ha (Amaranthus retroflexus [9]) [%] | plant injury at 2000 g/ha (Zea mays [10]) [%] | pest or weed control at 2000 g/ha (Xanthium strumarium [11]) [%] | IC50 [12] [nM] | pest or weed control at 4000 g/ha (Solanum) [%] | pest or weed control at 4000 g/ha (Echinochloa) [%] | pest or weed control at 4000 g/ha (Lepidium) [%] | pest or weed control at 4000 g/ha (Reis) [%] | IC50 (Plasmodium falciparum) [nM] | pest or weed control at 2000 g/ha (Abutilon theophrasti [13]) [%] | pest or weed control at 2000 g/ha (Alopecurus myosuroides [14]) [%] | pest or weed control at 2000 g/ha (Galium aperine [15]) [%] | further results |
| --- | --- | --- | --- | --- | --- | --- | --- | --- | --- | --- | --- | --- | --- | --- | --- | --- | --- | --- | --- | --- | --- |
| CC1CON(COCP(C)(=O)O)C1=O (stereo not drawn) [Compound 3] | 60 | 60 | 40 | 70 | 70 | 0 | 50 | 90 | 60 | 70 | 60 | 125 | 0 | 40 | 30 | 40 | 1700 | 0 | 60 | 0 | MIC (Pseudomonas aeruginosa): 2200 nM (≈ 0.491 µg/mL); pest or weed control at 2000 g/ha (Sinapis arvensis [16]): 30%; pest or weed control at 2000 g/ha (Setaria viridis [17]): 0%; pest or weed control at 2000 g/ha (Cyperus esculentus [18]): 0%; pest or weed control at 2000 g/ha (Avena fatua [19]): 0%; plant injury at 2000 g/ha (Beta vulgaris [20]): 30%; pest or weed control at 2000 g/ha (Amaranthus retroflexus [21]): 0%; plant injury at 2000 g/ha (Zea mays [22]): 0%; pest or weed control at 2000 g/ha (Xanthium strumarium [23]): 0% |
| CP(=O)(O)CCCN1OCCCC1=O [Compound 4] | 50 | 70 | 70 | 60 | 90 | 0 | 40 | 50 | 40 | 70 | 90 | 78 | 30 | 70 | 30 | 30 | 9200 | 0 | 0 | 0 | MIC (Pseudomonas aeruginosa): 7000 nM (≈ 1.55 µg/mL); pest or weed control at 2000 g/ha (Sinapis arvensis [16]): 70%; pest or weed control at 2000 g/ha (Setaria viridis [17]): 0%; pest or weed control at 2000 g/ha (Cyperus esculentus [18]): 0%; pest or weed control at 2000 g/ha (Avena fatua [19]): 60%; plant injury at 2000 g/ha (Beta vulgaris [20]): 60%; pest or weed control at 2000 g/ha (Amaranthus retroflexus [21]): 0%; plant injury at 2000 g/ha (Zea mays [22]): 30%; pest or weed control at 2000 g/ha (Xanthium strumarium [23]): 0% |
| CN(C)CCCN1OCCCC1=O [Compound 6] | 60 | 40 | 80 | 60 | 70 | 0 | 60 | 40 | 70 | 70 | 60 | 130 | 0 | 50 | 30 | 40 | 1600 | 0 | 70 | 0 | MIC (Pseudomonas aeruginosa; LB medium, overnight at 37° C., turbidity): 2500 nM (≈ 0.466 µg/mL); pest or weed control at 2000 g/ha (Sinapis arvensis [16]): 30%; pest or weed control at 2000 g/ha (Setaria viridis [17]): 0%; pest or weed control at 2000 g/ha (Cyperus esculentus [18]): 0%; pest or weed control at 2000 g/ha (Avena fatua [19]): 0%; plant injury at 2000 g/ha (Beta vulgaris [20]): 60%; pest or weed control at 2000 g/ha (Amaranthus retroflexus [21]): 0%; plant injury at 2000 g/ha (Zea mays [22]): 0%; pest or weed control at 2000 g/ha (Xanthium strumarium [23]): 0% |
